Laboratory results reported in article PMC8739840, “Structural and Molecular Insight into Piperazine and Piperidine Derivatives as Histamine H3 and Sigma-1 Receptor Antagonists with Promising Antinociceptive Properties” (ACS Chemical Neuroscience, 2021).
Several values for one entry are separate records, joined by “and”; a condition that tells them apart may be missing. Equal values may be shown once. Where a name gives a salt, the structure may show the parent alone. Read-outs that look alike come from different tables or passages of the source.

Experiments:
σ1R [1] = conditions: cited from earlier work
H3R = conditions: Figure 1, clinically evaluated H3R antagonists; cited from earlier work
[2] = target: T1, human recombinant histamine H3R (Homo sapiens, UniProt Q9Y5N1); conditions: mean [CI 95%]; read-out: hH3R Ki; cited from earlier work
T1 construct: expressed in transfected cells

σ2R [3] = target: T2, σ2R (Rattus norvegicus, UniProt Q5U3Y7); test: σ2R radioligand binding ([3H]DTG, liver membranes)
T2 sequence (Q5U3Y7 1-176): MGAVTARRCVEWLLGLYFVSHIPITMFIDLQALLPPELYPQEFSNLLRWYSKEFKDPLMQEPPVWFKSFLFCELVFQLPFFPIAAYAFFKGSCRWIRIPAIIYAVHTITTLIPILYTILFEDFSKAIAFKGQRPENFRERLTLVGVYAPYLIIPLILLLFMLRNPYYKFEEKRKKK

σ1R [4] = test: σ1R radioligand binding ([3H](+)-pentazocine, brain cortex membranes); conditions: σ2R Ki / σ1R Ki (selectivity factor)
σ1R [5] = target: σ1R (Cavia porcellus, UniProt Q60492); test: as above
human H3R = target: T3, human H3R (Homo sapiens, UniProt Q9Y5N1); set-up: method as in PMID 33261900; conditions: antagonist mode; read-out: hH3R Kb; cited from earlier work
T3 construct: expressed in transfected cells

hH1R [6] = target: T4, hH1R (Homo sapiens, UniProt P35367); set-up: method as in PMID 33261900; conditions: cited from earlier work
T4 construct: SP (signal peptide) (N); expressed in transfected cells

female CD1 mice = test: loperamide-induced antinociception, paw pressure struggle response latency; format: in vivo; conditions: for functional character at σ1 receptor deduced in vivo: from potentiation of loperamide antinociception and reversal by PRE-084; for effect on loperamide-induced antinociception: injected paw; for effect alone on struggle response latency to mechanical stimulus: 450 g paw pressure, without loperamide
hH4R = target: T5, hH4R (Homo sapiens, UniProt Q9H3N8); test: hH4R radioligand binding ([3H]UR-PI294); conditions: HEK293T cells; oxalate form
T5 construct: SP (signal peptide) (N); expressed in transfected cells
Procedure: (§1) Compounds (as oxalate salts) were tested in H3R in vitro binding studies, using methods described previously.[47],[48] […] Radioligand binding experiments at the H1R, H2R, and H4R were performed as previously described in Rosier et al.[70] and Bartole et al.[71] with HEK293T-SP-FLAG-hHxR (x = 1, 2, or 4) expressing the respective hHR. […] Data represent mean values ± CI from three independent experiments, each performed in triplicate. The normalized competition binding curves were then fitted with a four-parameter logistic fit yielding IC50 values using Prism 8.4.3 software (GraphPad, SanDiego, CA). The Ki values were estimated from the Cheng–Prusoff equation.[74]

hH2R = target: T6, hH2R (Homo sapiens, UniProt P25021); test: hH2R radioligand binding ([3H]UR-DE257); conditions: HEK293T cells; oxalate form
T6 construct: SP (signal peptide) (N); expressed in transfected cells
Procedure: as §1

hH1R [7] = target: T4, hH1R; test: hH1R radioligand binding ([3H]mepyramine); conditions: HEK293T cells; oxalate form
Procedure: as §1

[8] = target: T1, human recombinant histamine H3R; test: hH3R radioligand depletion binding assay ([3H]Nα-methylhistamine); conditions: mean [CI 95%]; HEK293 cells; data not published yet
σ2R [9] = conditions: cited from earlier work
[10] = Figure 1, clinically evaluated H3R antagonists, read-out: σ1R Ki
[11] = Table S1, well-known ligands (test set), no reference given, read-out: Exp. σ1 Ki
[12] = exptl Ki σ2, Table 3, given as mean ± spread
[13] = σ2R Ki, mean [CI 95%], [3H]DTG with (+)-pentazocine mask
[14] = exptl Ki σ1, Table 3, given as mean ± spread
[15] = σ1R Ki, mean [CI 95%], [3H](+)-pentazocine
[16] = mice, ipl 100 μg + loperamide 4 mg/kg sc
[17] = Table S1, well-known ligands (test set), no reference given, read-out: Exp. σ2 Ki

T1 sequence (Q9Y5N1 whole entry): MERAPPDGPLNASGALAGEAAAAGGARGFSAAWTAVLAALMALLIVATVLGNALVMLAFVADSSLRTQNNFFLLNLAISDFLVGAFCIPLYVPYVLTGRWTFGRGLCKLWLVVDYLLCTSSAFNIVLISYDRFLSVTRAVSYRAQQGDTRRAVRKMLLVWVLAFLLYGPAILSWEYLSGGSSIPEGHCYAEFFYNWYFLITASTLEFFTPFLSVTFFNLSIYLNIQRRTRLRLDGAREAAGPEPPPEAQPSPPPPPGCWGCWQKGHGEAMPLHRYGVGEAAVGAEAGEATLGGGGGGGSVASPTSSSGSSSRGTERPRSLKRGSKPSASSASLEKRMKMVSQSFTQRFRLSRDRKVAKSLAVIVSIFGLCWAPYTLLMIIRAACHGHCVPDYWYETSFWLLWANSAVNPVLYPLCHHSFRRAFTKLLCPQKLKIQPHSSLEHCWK
Chain of σ1R (Cavia porcellus, UniProt Q60492) (Q60492 whole entry): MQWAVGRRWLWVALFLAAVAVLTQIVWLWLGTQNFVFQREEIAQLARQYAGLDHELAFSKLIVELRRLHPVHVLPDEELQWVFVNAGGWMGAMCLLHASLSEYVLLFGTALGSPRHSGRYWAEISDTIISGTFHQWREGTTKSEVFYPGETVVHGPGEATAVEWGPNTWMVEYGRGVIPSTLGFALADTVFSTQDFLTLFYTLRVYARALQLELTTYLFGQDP
T4 sequence (P35367 whole entry): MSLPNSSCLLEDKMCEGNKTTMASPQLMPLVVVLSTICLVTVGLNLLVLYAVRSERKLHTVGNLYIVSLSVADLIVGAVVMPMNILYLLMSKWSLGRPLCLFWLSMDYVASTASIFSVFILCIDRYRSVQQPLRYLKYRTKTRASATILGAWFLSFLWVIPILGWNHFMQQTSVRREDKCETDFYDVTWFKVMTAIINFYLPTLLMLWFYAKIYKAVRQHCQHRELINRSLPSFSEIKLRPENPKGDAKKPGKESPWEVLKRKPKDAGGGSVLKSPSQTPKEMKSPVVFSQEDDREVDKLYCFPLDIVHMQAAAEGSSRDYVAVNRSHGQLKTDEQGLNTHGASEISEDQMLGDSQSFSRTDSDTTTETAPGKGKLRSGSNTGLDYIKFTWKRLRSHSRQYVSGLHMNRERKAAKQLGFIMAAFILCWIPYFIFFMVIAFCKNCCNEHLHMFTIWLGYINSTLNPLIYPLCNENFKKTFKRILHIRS
T3 sequence (Q9Y5N1 whole entry): as the sequence (Q9Y5N1 whole entry) above
T6 sequence (P25021 whole entry): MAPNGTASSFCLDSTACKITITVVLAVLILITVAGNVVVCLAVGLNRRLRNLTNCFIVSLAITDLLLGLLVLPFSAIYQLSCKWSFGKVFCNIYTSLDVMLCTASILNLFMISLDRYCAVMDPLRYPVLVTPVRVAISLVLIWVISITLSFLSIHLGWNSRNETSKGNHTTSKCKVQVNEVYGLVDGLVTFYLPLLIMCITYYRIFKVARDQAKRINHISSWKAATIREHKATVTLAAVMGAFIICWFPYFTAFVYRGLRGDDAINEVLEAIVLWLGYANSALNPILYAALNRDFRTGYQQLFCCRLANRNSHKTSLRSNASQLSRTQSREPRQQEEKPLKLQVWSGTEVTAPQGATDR

Row | SMILES | Ki (σ2R [3]; [12]) | Ki (σ2R [3]; [13]) | σ2/σ1 ratio (σ1R [4]) | Ki (σ1R [5]; [14]) | Ki (σ1R [5]; [15]) | also measured
1 | C[C@@H]1CCCN1CCc1cc2cc(-c3ccc(C#N)cc3)ccc2o1 [ABT-239] |  |  |  |  |  | Ki (σ1R [1]; [10]): 6.3 nM; Ki (H3R): 15.9 nM
2 | CN1CCN(CCc2ccc(Cl)c(Cl)c2)CC1 [BD1063] |  |  |  |  |  | Ki (σ1R [1]; [11]): 13.7 nM
3 | O=C(c1ccc(OCCCN2CCN(c3ccncc3)CC2)cc1)C1CC1 [Compound 4] | 101 ± 15.4 nM | 101 nM | 0.1 | 1530 ± 275 nM | 1530 nM | Ki [2]: 3 nM
4 | O=C(c1ccc(OCCCN2CCC(c3ccncc3)CC2)cc1)C1CC1 [Compound 5] | 22.4 ± 4.13 nM | 22 nM and 22.4 nM |  | 3.64 ± 0.74 nM | 3.64 nM | Ki [2]: 8 nM; Kb (human H3R): 18.8 nM; Ki (hH1R [6]): > 10000 nM; functional character at σ1 receptor deduced in vivo (female CD1 mice): σ1 receptor antagonists; effect on loperamide-induced antinociception (female CD1 mice; [16]): increased the antinociceptive effect of loperamide at the injected paw; effect alone on struggle response latency to mechanical stimulus (female CD1 mice; mice, ipl 100 μg): did not have any effect per se
5 | O=C(c1ccccc1)c1ccc(OCCCN2CCN(c3ccncc3)CC2)cc1 [Compound 8] | 29.2 ± 1.81 nM | 29.2 nM |  | 726 ± 177 nM | 726 nM | 
6 | C#CCN(C)Cc1cc2cc(OCCCN3CCCCC3)ccc2n1C [Contilisant] |  |  |  |  |  | Ki (σ2R [9]; Figure 1, clinically evaluated H3R antagonists, read-out: σ2R Ki): 326 nM; Ki (σ1R [1]; [10]): 65.2 nM; Ki (H3R): 10.8 nM
7 | COc1cc2c(cc1OC)CN(CCCCNC(=O)c1cc(C)ccc1OCCF)CC2 [F-ISO] |  |  |  |  |  | Ki (σ2R [9]; [17]): 6.95 nM; Ki (σ1R [1]; [11]): 330 nM
8 | CNC(=O)c1ccc(Oc2ccc3c(c2)CCN(C2CCC2)CC3)nc1 [GSK189254] |  |  |  |  |  | Ki (σ1R [1]; [10]): 240 nM; Ki (H3R): 1.7 nM
9 | CC(C(O)c1ccc(O)cc1)N1CCC(Cc2ccccc2)CC1 (stereo not drawn) [Ifenprodil] |  |  |  |  |  | Ki (σ2R [9]; [17]): 18.8 nM; Ki (σ1R [1]; [11]): 1.02 nM
10 | c1cc(OCCCN2CCCCC2)ccc1CN1CCCCC1 [JNJ-5207852] |  |  |  |  |  | Ki (σ1R [1]; [10]): 1170 nM; Ki (H3R): 0.3 nM
11 | O=C(OCCN1CCOCC1)C1(c2ccccc2)CCCCC1 [PRE-084, 2-[4-morpholinethyl]1-phenylcyclohexanecarboxylate hydrochloride] |  |  |  |  |  | Ki (σ2R [9]; [17]): 13100 nM; Ki (σ2R [9]; reference σ1R ligands, read-out: σ2R Ki): > 10000 nM; Ki [8]: > 10000 nM; effect of coadministration on potentiation of loperamide antinociception by S1RA (female CD1 mice; mice, 75 μg ipl with S1RA, loperamide-treated, identical with 5 or 11): completely abolished the effect of the σ1R antagonist
12 | COOc1c(OC)cc(I)cc1C(=O)NCCCCN1CCc2cc(OC)c(OC)cc2C1 [RHM-4, N-(4-(6,7-Dimethoxy-3,4-dihydroisoquinolin-2(1H)-yl)butyl)-5-iodo-3-methoxy-2-(methylperoxy)benzamide] |  |  | 0.00012 |  |  | Ki (σ2R [9]; read-out: σ2R Ki): 0.26 nM; Ki (σ1R [1]; read-out: σ1R Ki): 2150 nM
13 | Cc1cc(OCCN2CCOCC2)nn1-c1ccc2ccccc2c1 [S1RA, 4-[2-[[5-methyl-1-(2-naphthalenyl)-1H-pyraol-3-yl]oxy]ethyl]morpholine hydrochloride, reference compound] |  |  |  |  |  | Ki [8]: > 10000 nM; effect on loperamide-induced antinociception (female CD1 mice; [16]): significantly increased the antinociceptive effect induced by loperamide; effect alone on struggle response latency to mechanical stimulus (female CD1 mice; mice, ipl 100 μg): did not change the response to the mechanical stimulus
14 | CN(C)C(=O)C(CCN1CCC(O)(c2ccc(Cl)cc2)CC1)(c1ccccc1)c1ccccc1 [loperamide, loperamide hydrochloride, reference compound] |  |  |  |  |  | struggle response latency versus solvent (female CD1 mice; mice, 4 mg/kg sc alone): minimal (nonsignificant) increase in the struggle response latency
15 | C=CCN1CC[C@]23c4c5ccc(O)c4O[C@H]2C(=O)CC[C@@]3(O)[C@H]1C5 [naloxone, Naloxone hydrochloride, reference compound] |  |  |  |  |  | effect on antinociception of loperamide + S1RA (female CD1 mice; mice, 1 mg/kg sc, identical with 5 or 11): full reversion of the antinociceptive effect of the combination of loperamide + S1RA

More lines, main results first:

Row | Ki (σ2R [3]; [12]) | Ki (σ2R [3]; [13]) | σ2/σ1 ratio (σ1R [4]) | Ki (σ1R [5]; [14]) | Ki (σ1R [5]; [15]) | SMILES | also measured
16 | 64.3 ± 14 nM | 64.3 nM | 0.1 | 592 ± 94.1 nM | 592 nM | CCc1ccc(OCCCN2CCN(c3ccncc3)CC2)cc1 [Compound 1] | Ki [2]: 40.4 nM
17 | 130 ± 8.23 nM | 130 nM | 1.2 | 112 ± 9.45 nM | 112 nM | CC(C)(C)c1ccc(OCCCN2CCN(c3ccncc3)CC2)cc1 [Compound 2] | 
18 | 247 ± 39.4 nM | 247 nM | 0.2 | 1410 ± 312 nM | 1410 nM | CC(=O)c1ccc(OCCCN2CCN(c3ccncc3)CC2)cc1 [Compound 3] | 
19 | 108 ± 19.2 nM | 108 nM | 0.2 | 638 ± 120 nM | 638 nM | c1ccc(-c2ccc(OCCCN3CCN(c4ccncc4)CC3)cc2)cc1 [Compound 6] | Ki [2]: 21.1 nM
20 | 75.2 ± 13 nM | 75.2 nM |  |  |  | N#Cc1ccc(-c2ccc(OCCCN3CCN(c4ccncc4)CC3)cc2)cc1 [Compound 7] | 
21 | 32.4 ± 3.46 nM | 32.4 nM | 0.1 | 641 ± 87.9 nM | 641 nM | O=C(c1ccc(Cl)cc1)c1ccc(OCCCN2CCN(c3ccncc3)CC2)cc1 [Compound 9] | 
22 | 164 ± 34.6 nM | 164 nM | 0.1 | 1310 ± 332 nM | 1310 nM | O=C(c1ccc(F)cc1)c1ccc(OCCCN2CCN(c3ccncc3)CC2)cc1 [Compound 10] | 
23 | 67.9 ± 7.51 nM | 68 nM and 67.9 nM |  | 4.41 ± 0.58 nM | 4.41 nM | c1ccc(-c2ccc(OCCCN3CCCCC3)cc2)cc1 [Compound 11] | Ki (hH4R): > 10000 nM; Ki (hH2R): > 100000 nM; Ki (hH1R [7]): > 10000 nM; functional character at σ1 receptor deduced in vivo (female CD1 mice): σ1 receptor antagonists; effect on loperamide-induced antinociception (female CD1 mice; mice, ipl 50 μg + loperamide 4 mg/kg sc): increased the antinociceptive effect of loperamide at the injected paw; effect alone on struggle response latency to mechanical stimulus (female CD1 mice; mice, ipl 50 μg): did not have any effect per se
24 | 96.2 ± 14.7 nM | 96.2 nM | 6.5 | 14.8 ± 1.86 nM | 14.8 nM | O=C(c1ccccc1)c1ccc(OCCCN2CCCCC2)cc1 [Compound 12] | Ki [8]: 22 nM
25 | 175 ± 35.1 nM | 175 nM | 3.4 | 51.8 ± 9.1 nM | 51.8 nM | CC(C)(C)c1ccc(OCCCCN2CCN(c3ccncc3)CC2)cc1 [Compound 13] | 
26 | 101 ± 19.3 nM | 101 nM | 0.4 | 285 ± 50.4 nM | 285 nM | CCC(C)(C)c1ccc(OCCCCN2CCN(c3ccncc3)CC2)cc1 [Compound 14] | 
27 | 1790 ± 415 nM | 1800 nM | <0.2 | > 10000 nM | > 10000 nM | CC(=O)c1ccc(OCCCCN2CCN(c3ccncc3)CC2)cc1 [Compound 15] | 
28 | 151 ± 26.4 nM | 151 nM | 4.0 | 37.8 ± 16.1 nM | 37.8 nM | CC(=O)c1ccc(OCCCCCCN2CCN(c3ccncc3)CC2)cc1 [Compound 16] | Ki [2]: 12.7 nM
29 | 110 ± 15.9 nM | 110 nM | 0.4 | 248 ± 30.9 nM | 248 nM | CCC(=O)c1ccc(OCCCCCCN2CCN(c3ccncc3)CC2)cc1 [Compound 17] | Ki [2]: 16.9 nM
30 | 179 ± 27.2 nM | 179 nM | 0.7 | 255 ± 48 nM | 255 nM | CC(C)(C)c1ccc(OCCCCCCN2CCN(c3ccncc3)CC2)cc1 [Compound 18] | Ki [2]: 397 nM
31 | 59.7 ± 11.2 nM | 59.7 nM | 0.1 | 408 ± 111 nM | 408 nM | CC(=O)c1ccc(OCCCCCCCCN2CCN(c3ccncc3)CC2)cc1 [Compound 19] | Ki [2]: 40.5 nM
32 | 65.9 ± 11 nM | 65.9 nM | 0.2 | 274 ± 40.4 nM | 274 nM | CCC(=O)c1ccc(OCCCCCCCCN2CCN(c3ccncc3)CC2)cc1 [Compound 20] | Ki [2]: 38.9 nM
